{
  "source": "patent US12435320B2",
  "about": "“CRISPR having or associated with destabilization domains” (The Broad Institute, Inc., priority 2014, dated 2025)",
  "key": {"Factor VII": {"tested_on": "Factor VII", "conditions": "LNP siRNA systems containing these lipids; hepatocytes in vivo; cited from earlier work"}, "Mutants of human FKBP12": {"tested_on": "Mutants of human FKBP12", "conditions": "cited from earlier work"}, "EGFP gene [1]": {"tested_on": "EGFP gene", "assay": "Decrease in EGFP positive cells in an EGFP-producing cell line treated with SpCas9-DD fusion protein and guide RNA", "assay_type": "cell-based", "conditions": "DHFR-SpCas9-DHFR (DSPD); increasing dosages of TMP"}, "EGFP gene [2]": {"tested_on": "EGFP gene", "assay": "U2OS.EGFP knockdown assay, loss of EGFP fluorescence, high-content automated microscope imaging", "assay_type": "cell-based", "conditions": "ligand added to the DD-SpCas9-DD fusion protein and EGFP guide RNA", "excerpt": "The low throughput, flow cytometry-readout was replaced with a high-throughput readout using a high-content, automated microscope imaging. This assay can be run in a 96-well format and the data can be analyzed by a high-throughput image analysis platform, called ImageExpress."}, "mammalian DHFR (DHFRts)": {"tested_on": "mammalian DHFR (DHFRts)", "conditions": "addition to cells expressing DHFRts; cited from earlier work"}, "[3]": {"tested_on": "human embryonic stem cells (hESCs)", "assay": "Mutagenic NHEJ by Cas9-D10A nickase in human embryonic stem cells", "assay_type": "cell-based", "source_text": "The CRISPR enzyme is Cas9, and may be Cas9 from S. pyogenes or S. pneumoniae. In some embodiments, the CRISPR enzyme directs cleavage of one or both strands at the location of a target sequence, such as within the target sequence and/or within the complement of the target sequence. In some embodiments, the CRISPR enzyme directs cleavage of one or both strands within about 1, 2, 3, 4, 5, 6, 7, 8, 9, 10, 15, 20, 25, 50, 100, 200, 500, or more base pairs from the first or last nucleotide of a target sequence. In some embodiments, a vector encodes a CRISPR enzyme that is mutated to with respect to a corresponding wild-type enzyme such that the mutated CRISPR enzyme lacks the ability to cleave one or both strands of a target polynucleotide containing a target sequence. […] In some embodiments, a Cas9 nickase may be used in combination with guide sequenc(es), e.g., two guide sequences, which target respectively sense and antisense strands of the DNA target. This combination allows both strands to be nicked and used to induce NHEJ."}, "[4]": {"assay": "Double nicking indel formation with sgRNA pairs", "assay_type": "cell-based", "conditions": "substitution of Cas9n with Cas9H840A with a given sgRNA pair; eukaryotic system", "source_text": "Aspects of the invention relate to the expression of the gene product being decreased or a template polynucleotide being further introduced into the DNA molecule encoding the gene product or an intervening sequence being excised precisely by allowing the two 5′ overhangs to reanneal and ligate or the activity or function of the gene product being altered or the expression of the gene product being increased. In an embodiment of the invention, the gene product is a protein. Only sgRNA pairs creating 5′ overhangs with less than 8 bp overlap between the guide sequences (offset greater than −8 bp) were able to mediate detectable indel formation. […] Nonetheless, a pair of sgRNAs that will generate a 5′ overhang with Cas9n should in principle generate the corresponding 3′ overhang instead, and double nicking. […] Accordingly, in some embodiments, a recombination template is also provided. A recombination template may be a component of another vector as described herein, contained in a separate vector, or provided as a separate polynucleotide. In some embodiments, a recombination template is designed to serve as a template in homologous recombination, such as within or near a target sequence nicked or cleaved by a CRISPR enzyme as a part of a CRISPR complex. […]"}, "dystrophin": {"tested_on": "dystrophin", "conditions": "across 48 weeks; cited from earlier work"}},
  "data": [
    {"compound": "1,2-dilinoleyloxy-keto-N,N-dimethyl-3-aminopropane [DLinKDMA]", "values": [
      {"measurement": "gene silencing potency series", "setting": "Factor VII", "value": "DLinKC2-DMA>DLinKDMA>DLinDMA>>DLinDAP"}
    ]},
    {"compound": "CCCCC/C=C\\C/C=C\\CCCCCCCC(=O)OCC(CN(C)C)OC(=O)CCCCCCC/C=C\\C/C=C\\CCCCC", "note": "(stereo not shown) [DLinDAP, 1,2-dilineoyl-3-dimethylammonium-propane]", "values": [
      {"measurement": "gene silencing potency series", "setting": "Factor VII", "value": "DLinKC2-DMA>DLinKDMA>DLinDMA>>DLinDAP"}
    ]},
    {"compound": "CCCCC/C=C\\C/C=C\\CCCCCCCCOCC(CN(C)C)OCCCCCCCC/C=C\\C/C=C\\CCCCC", "note": "(stereo not shown) [DLinDMA, 1,2-dilinoleyloxy-3-N,N-dimethylaminopropane]", "values": [
      {"measurement": "gene silencing potency series", "setting": "Factor VII", "value": "DLinKC2-DMA>DLinKDMA>DLinDMA>>DLinDAP"}
    ]},
    {"compound": "CCCCC/C=C\\C/C=C\\CCCCCCCCC1(CCCCCCCC/C=C\\C/C=C\\CCCCC)OCC(CCN(C)C)O1", "note": "(stereo not shown) [DLinKC2-DMA, 1,2-dilinoleyl-4-(2-dimethylaminoethyl)-[1,3]-dioxolane]", "values": [
      {"measurement": "gene silencing potency series", "setting": "Factor VII", "value": "DLinKC2-DMA>DLinKDMA>DLinDMA>>DLinDAP"}
    ]},
    {"compound": "CC[C@H](C(=O)N1CCCC[C@H]1C(=O)O[C@H](CCc1ccc(OC)c(OC)c1)c1cccc(OCCN2CCOCC2)c1)c1cc(OC)c(OC)c(OC)c1", "note": "[Shield-1]", "values": [
      {"measurement": "binding and stabilization of the DD", "setting": "Mutants of human FKBP12", "value": "bind to and stabilize the DD in a dose-dependent manner"}
    ]},
    {"compound": "COc1cc(Cc2cnc(N)nc2N)cc(OC)c1OC", "note": "[TMP, trimethoprim]", "values": [
      {"measurement": "effect of ligand addition on the effect of the SpCas9-DD fusion protein", "setting": "EGFP gene [1]", "value": "increased the effect of the SpCas9-DD fusion protein in a dose-dependent manner"},
      {"measurement": "Effect of added DD ligand on the fusion protein's reduction of EGFP fluorescence", "setting": "EGFP gene [2]", "value": "increased the effect of the DSPD fusion protein in a dose-dependent manner"}
    ]},
    {"compound": "CN(Cc1cnc2nc(N)nc(N)c2n1)c1ccc(C(=O)N[C@@H](CCC(=O)O)C(=O)O)cc1", "note": "[methotrexate]", "values": [
      {"measurement": "degradation of DHFRts protein", "setting": "mammalian DHFR (DHFRts)", "value": "inhibited degradation of the protein partially"}
    ]},
    {"compound": "Cas9-D10A: Cas9 nickase with the D10A mutation", "values": [
      {"measurement": "efficiency relative to nuclease (regular Cas9 without D10 mutation)", "setting": "[3]; double nickase, two sgRNAs targeted to different strands at the same location, hESCs", "value": "about 50%"},
      {"measurement": "induction of NHEJ and indels", "setting": "[3]; single nickase, with a single sgRNA", "value": "unable to induce NHEJ and create indels"}
    ]},
    {"compound": "Cas9H840A: Cas9 with the H840A mutation", "values": [
      {"measurement": "indel formation", "setting": "[4]", "value": "no indel formation is observed"}
    ]},
    {"compound": "eteplirsen", "values": [
      {"measurement": "Dystrophin positive fibers compared to baseline, average", "setting": "dystrophin", "value": 47, "unit": "%"},
      {"measurement": "Functional benefit", "setting": "dystrophin", "value": "significant functional benefit"}
    ]}
  ]
}
